# Measurements: patent US20030170693A1, “Assay for identifying modulators of Borrelia telomere resolvase” (priority 2001, published 2003)
# Read-outs that look alike come from different tables or passages of the source.
# Key:
# ResT = target: T1, ResT (Borreliella burgdorferi, UniProt O50979); test: In vitro telomere resolution by ResT (plasmid substrate, agarose gel); format: biochemical; conditions: for effect of peptide on in vitro ResT activity: peptide inhibitors of tyrosine recombinase or topoisomerase, FIG. 9; for concentration at which complete inhibition of ResT activity was observed: pYT1 as the substrate, agarose gel, FIG. 8A; for inhibition of ResT: 2 mM, data not shown
# T1 construct: made in house; host or cells: E. coli BL21 (lambda DE3) pLysS, strain BGC88 carrying pKK4
# T1 sequence (O50979 1-449): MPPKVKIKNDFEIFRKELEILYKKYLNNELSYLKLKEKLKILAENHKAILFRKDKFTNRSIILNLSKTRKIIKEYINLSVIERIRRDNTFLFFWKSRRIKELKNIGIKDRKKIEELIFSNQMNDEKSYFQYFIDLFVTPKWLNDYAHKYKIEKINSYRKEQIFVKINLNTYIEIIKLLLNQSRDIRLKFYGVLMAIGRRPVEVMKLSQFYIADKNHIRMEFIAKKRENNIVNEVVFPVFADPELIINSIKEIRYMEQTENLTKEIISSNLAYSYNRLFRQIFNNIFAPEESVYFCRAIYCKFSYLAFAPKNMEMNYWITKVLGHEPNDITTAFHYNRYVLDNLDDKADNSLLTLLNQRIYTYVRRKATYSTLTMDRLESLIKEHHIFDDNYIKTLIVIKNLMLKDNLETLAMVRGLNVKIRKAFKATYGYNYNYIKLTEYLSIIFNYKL
# Protocol: The activity of the purified recombinant protein (ResT) was assayed using plasmids previously established to be in vivo substrates for telomere resolution in B. burgdorferi (Chaconas et al., 2001). pGCL15-6 has a 70 bp replicated left-end telomere from the linear plasmid Ip17 (FIG. 1B). Typical reaction conditions, herein defined as 1× reaction are as follows: 25 mM Tris-HCl [pH 8.5], 100 mM NaCl, 1 mM EDTA, 5 mM spermidine, 100 μg/ml bovine serum albumin, 5 μg/ml substrate DNA and 2 μg/ml ResT. Reactions (typically 30 μl) were incubated at 30° C. for 30 min and terminated by addition of SDS to a final concentration of 0.5%. Spermidine contributes an approximate 3-fold stimulation to the reaction and was therefore omitted from the reactions used for cleavage site determination. Linearized and relaxed plasmid substrates were prepared in 10-20 μg batches by reaction with the specified restriction enzyme with the manufacturers buffers or with Shope Fibroma Virus topoisomerase I (gift of Dr. David Evans, University of Guelph), in ResT reaction buffer. These reactions were then extracted with phenol/chloroform, chloroform alone, and subsequently ethanol precipitated and resuspended in 25 mM Hepes-NaOH [pH 7.6], 0.1 mM EDTA.
# Reactions were performed containing increasing amounts of the topoisomerase inhibitors coumermycin A1 or novobiocin. The reactions were analyzed by agarose gel electrophoresis followed by staining with ethidium bromide.
# In vitro ResT activity was assayed in the presence of peptide inhibitors provided by Dr. Anca Segall, San Diego State University. These peptides were previously characterized as inhibitors of tyrosine recombinase or topoisomerase activity (Cassell et al., 2000; Klemm et al., 2000). […] The results also raise the possibility for further development of peptide inhibitors of ResT for therapeutic and/or environmental agents to inhibit growth of Borrelia species.
# [1] = target: B. burgdorferi strain (NGR) carrying a triple mutation in the gyrB gene; test: Growth of B. burgdorferi strain (NGR) carrying coumarin-resistant gyrase in culture; format: cell-based, Borrelia burgdorferi; conditions: read-out: IC50, inhibition of growth of B. burgdorferi carrying the resistant gyrase
# Protocol: To determine whether coumermycin Al and novobiocin could block growth of B. burgdorferi in culture, a B. burgdorferi strain (NGR) carrying a triple mutation in the gyrB gene (Knight et al., 2000; Rosa et al., 1996) was used (provided by Dr. D. Scott Samuels, University of Montana, Missoula). The triple mutation in the gyrase B subunit renders the mutant DNA gyrase resistant to coumermycin A1 and novobiocin. B. burgdorferi carrying the resistant gyrase was grown in the absence, or in the presence of increasing amounts of coumermycin A1 or novobiocin. […] The drug concentrations for complete inhibition of growth were almost identical to the concentrations of both drugs required for complete inhibition of ResT in vitro.
compound,measurement,setting,value
NCCCCNCCCN [spermidine],stimulation of the in vitro telomere resolution reaction,ResT; 5 mM spermidine in 1× reaction,~3 fold
peptide #59: peptide which inhibits DNA cleavage by λ integrase (KWWCRW; Peptide #59),effect of peptide on in vitro ResT activity,ResT,mild stimulator
coumermycin A1,IC50,"[1]; gyrB triple mutant strain NGR, FIG. 8B",75 µM
same,concentration at which complete inhibition of ResT activity was observed,ResT,150 µM
CCn1cc(C(=O)O)c(=O)c2ccc(C)nc21 [nalidixic acid],inhibition of ResT,ResT,did not inhibit
CC[C@@]1(O)C(=O)OCc2c1cc1n(c2=O)Cc2cc3ccccc3nc2-1 [camptothecin],inhibition of ResT,ResT,did not inhibit
CO[C@@H]1[C@@H](OC(N)=O)[C@@H](O)[C@H](Oc2ccc3c(O)c(NC(=O)c4ccc(O)c(CC=C(C)C)c4)c(=O)oc3c2C)OC1(C)C [novobiocin],IC50,[1]; Borreliella burgdorferi,255 µM
same,concentration at which complete inhibition of ResT activity was observed,ResT,1000 µM
Peptide #52: peptide which traps the Holliday junction intermediate in λ recombination (WKHYNY; Peptide #52),effect of peptide on in vitro ResT activity,ResT,did not have any effect
